Laboratory results: ChEMBL document CHEMBL1132981 (J Med Chem, 2000)

Columns and labels:
[1] = molecular target: Adenosine receptors; A1 & A2b (Homo sapiens) (UniProt P30542+P29275); assay: Selectivity ratio of hA1 to hA2B; assay type: protein assay
[2] = molecular target: Adenosine receptors; A2b & A3 (Homo sapiens) (UniProt P29275+P0DMS8); assay: Selectivity ratio of hA3 to hA2B; assay type: protein assay
[3] = molecular target: Adenosine receptor A2a (Rattus norvegicus) (UniProt P30543); assay: Antagonist activity against adenosine A2A receptor in rat striatal membrane using [3H]CGS-21680; assay type: functional, cell membranes; settings: Striatum, concentration not given here
Adenosine receptor A1 [4] = molecular target: T1, Adenosine receptor A1 (Rattus norvegicus, UniProt P25099); assay: biochemical
T1 sequence (P25099 whole entry): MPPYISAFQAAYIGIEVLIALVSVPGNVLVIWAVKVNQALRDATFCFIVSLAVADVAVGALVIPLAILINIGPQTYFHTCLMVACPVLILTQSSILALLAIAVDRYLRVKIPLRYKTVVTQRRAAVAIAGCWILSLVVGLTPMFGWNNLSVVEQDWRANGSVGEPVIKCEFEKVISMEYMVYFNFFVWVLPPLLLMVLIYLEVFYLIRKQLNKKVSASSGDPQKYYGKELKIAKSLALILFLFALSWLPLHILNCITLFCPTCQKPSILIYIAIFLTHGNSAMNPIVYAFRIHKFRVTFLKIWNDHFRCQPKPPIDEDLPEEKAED
Description: Antagonist activity against adenosine A1 receptor in rat brain membrane in presence of [3H]R-PIA radioligand.

[5] = molecular target: T2, Adenosine receptor A3 (Homo sapiens) (UniProt P0DMS8); assay type: functional, cell-based; settings: HEK293, 10e-6 M
T2 sequence (whole entry): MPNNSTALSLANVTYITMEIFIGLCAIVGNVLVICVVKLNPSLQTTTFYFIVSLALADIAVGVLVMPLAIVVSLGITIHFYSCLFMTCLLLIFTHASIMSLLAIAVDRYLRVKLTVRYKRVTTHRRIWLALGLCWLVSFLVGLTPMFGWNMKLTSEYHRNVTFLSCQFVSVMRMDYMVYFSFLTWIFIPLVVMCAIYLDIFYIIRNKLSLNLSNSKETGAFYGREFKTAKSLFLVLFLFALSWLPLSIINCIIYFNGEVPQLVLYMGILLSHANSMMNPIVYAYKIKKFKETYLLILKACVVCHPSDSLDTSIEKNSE

Adenosine receptor A2a [6] = molecular target: Adenosine receptor A2a (Rattus norvegicus, UniProt P30543); assay: biochemical
Description: Antagonist activity against adenosine A2A receptor in rat striatal membrane in presence of [3H]CGS-21680 radioligand.

Adenosine receptor A3 [7] = molecular target: T3, Adenosine receptor A3 (Rattus norvegicus, UniProt P28647); assay type: functional
T3 sequence (P28647 whole entry): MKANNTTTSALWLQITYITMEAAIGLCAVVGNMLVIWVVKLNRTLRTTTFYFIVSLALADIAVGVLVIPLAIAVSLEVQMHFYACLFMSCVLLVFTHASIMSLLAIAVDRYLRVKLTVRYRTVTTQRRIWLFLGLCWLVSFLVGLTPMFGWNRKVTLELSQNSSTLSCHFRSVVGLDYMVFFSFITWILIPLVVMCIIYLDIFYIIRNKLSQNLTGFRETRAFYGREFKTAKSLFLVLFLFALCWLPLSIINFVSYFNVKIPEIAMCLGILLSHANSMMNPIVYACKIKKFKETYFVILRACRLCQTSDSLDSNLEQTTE

[8] = molecular target: T4, Adenosine receptor A2b (Homo sapiens) (UniProt P29275); assay type: functional, cell-based; settings: HEK293, 10e-5 M
T4 sequence (whole entry): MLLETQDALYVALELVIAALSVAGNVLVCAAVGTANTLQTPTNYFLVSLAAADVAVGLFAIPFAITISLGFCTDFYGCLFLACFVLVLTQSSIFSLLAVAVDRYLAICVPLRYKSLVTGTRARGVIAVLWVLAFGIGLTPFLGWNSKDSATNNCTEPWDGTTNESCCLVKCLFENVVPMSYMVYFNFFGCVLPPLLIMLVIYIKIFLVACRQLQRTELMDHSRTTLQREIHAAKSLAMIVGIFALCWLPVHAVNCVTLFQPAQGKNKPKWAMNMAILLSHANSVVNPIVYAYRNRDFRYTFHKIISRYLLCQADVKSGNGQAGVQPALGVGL

[9] = molecular target: Adenosine receptor A2a (Rattus norvegicus) (UniProt P30543); assay: Antagonist activity against adenosine A2A receptor in rat striatal membrane using [3H]CGS-21680 at 10e-5 M; assay type: functional, cell membranes; settings: Striatum
Adenosine receptor A2b = molecular target: T5, Adenosine receptor A2b (Homo sapiens, UniProt P29275)
T5 sequence (P29275 whole entry): T4 sequence (whole entry)
Description: Antagonist activity against human A2B adenosine receptor expressed in HEK293 cells uisng [3H]ZM-241385 or [125I]-IABOPX

Adenosine receptor A1 [10] = molecular target: T6, Adenosine receptor A1 (Homo sapiens, UniProt P30542); assay: biochemical
T6 sequence (P30542 whole entry): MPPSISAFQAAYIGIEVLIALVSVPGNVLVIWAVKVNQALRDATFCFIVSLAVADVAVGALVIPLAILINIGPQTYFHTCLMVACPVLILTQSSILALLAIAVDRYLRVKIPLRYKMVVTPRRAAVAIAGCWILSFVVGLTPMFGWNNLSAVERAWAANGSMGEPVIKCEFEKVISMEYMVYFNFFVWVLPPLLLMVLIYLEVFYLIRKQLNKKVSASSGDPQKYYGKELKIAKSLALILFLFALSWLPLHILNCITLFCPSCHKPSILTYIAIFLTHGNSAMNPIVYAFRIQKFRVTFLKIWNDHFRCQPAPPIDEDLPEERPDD
Description: Antagonist activity against recombinant human adenosine A1 receptor expressed in HEK293 cells in presence of [125I]IABA radioligand.

Adenosine receptor A2a [11] = molecular target: Adenosine receptor A2a (Homo sapiens, UniProt P29274); assay: biochemical
Description: Antagonist activity against recombinant human adenosine A2A receptor expressed in HEK293 cells in presence of [125I]iodo-ZM-241385 radioligand.

Adenosine receptor A3 [12] = molecular target: T7, Adenosine receptor A3 (Homo sapiens, UniProt P0DMS8); assay: biochemical
T7 sequence (P0DMS8 whole entry): T2 sequence (whole entry)
Description: Antagonist activity against human adenosine A3 receptor expressed in HEK cells in presence of [125]IAB-MECA or [125I]IABA radioligand.

[13] = molecular target: T8, Adenosine receptor A1 (Rattus norvegicus) (UniProt P25099); assay: Antagonist activity against A1 adenosine receptor in rat brain membrane using [3H]-R-PIA at 10e-5 M; assay type: functional, cell membranes
T8 sequence (whole entry): T1 sequence (P25099 whole entry)

[14] = molecular target: T8, Adenosine receptor A1 (Rattus norvegicus); assay: Antagonist activity against adenosine A1 receptor in rat brain membrane using [3H]R-PIA at 10e-5 M; assay type: functional, cell membranes

Chain of Adenosine receptor A2a (Rattus norvegicus) (P30543 whole entry): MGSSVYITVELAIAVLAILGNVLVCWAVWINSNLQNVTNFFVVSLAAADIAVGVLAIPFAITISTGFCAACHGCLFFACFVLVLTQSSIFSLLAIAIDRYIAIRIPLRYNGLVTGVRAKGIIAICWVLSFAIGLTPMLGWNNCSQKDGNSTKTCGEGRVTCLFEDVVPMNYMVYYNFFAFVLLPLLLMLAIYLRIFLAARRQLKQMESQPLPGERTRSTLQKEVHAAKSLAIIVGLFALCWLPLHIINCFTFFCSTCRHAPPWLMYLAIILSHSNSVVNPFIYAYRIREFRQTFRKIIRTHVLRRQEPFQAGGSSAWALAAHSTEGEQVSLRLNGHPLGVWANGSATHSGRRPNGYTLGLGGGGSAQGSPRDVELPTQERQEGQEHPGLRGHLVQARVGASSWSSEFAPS
Chain of Adenosine receptor A2a (Rattus norvegicus, UniProt P30543) (P30543 whole entry): as above
Chain of Adenosine receptor A2a (Homo sapiens, UniProt P29274) (P29274 whole entry): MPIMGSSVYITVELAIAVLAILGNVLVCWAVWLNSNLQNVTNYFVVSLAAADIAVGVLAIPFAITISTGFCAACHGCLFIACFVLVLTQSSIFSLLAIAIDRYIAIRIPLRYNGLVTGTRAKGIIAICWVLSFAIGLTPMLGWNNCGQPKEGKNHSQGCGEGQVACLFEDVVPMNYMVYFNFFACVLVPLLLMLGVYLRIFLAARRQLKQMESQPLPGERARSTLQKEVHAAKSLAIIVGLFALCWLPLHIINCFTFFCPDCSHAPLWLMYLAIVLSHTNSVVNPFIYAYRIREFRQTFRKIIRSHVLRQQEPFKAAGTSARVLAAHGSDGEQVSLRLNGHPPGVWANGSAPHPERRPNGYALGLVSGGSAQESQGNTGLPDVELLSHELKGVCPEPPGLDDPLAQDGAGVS

Structure (SMILES) | Ratio [1] | Ratio [2] | further results
CCCn1c(=O)c2nc(-c3ccc(OCC(=O)Nc4ccc(I)cc4)cc3)[nH]c2n(CCC)c1=O | 140 | 600 | –
CCCn1c(=O)c2nc(-c3ccc(OCC(=O)Nc4ccc(C(=O)OC)cc4)cc3)[nH]c2n(CCC)c1=O | 57 | 92 | –
CCCn1c(=O)c2nc(-c3ccc(OCC(=O)Nc4ccccc4)cc3)[nH]c2n(CCC)c1=O | 27 | 93 | –
CCCn1c(=O)c2nc(-c3ccc(OCC(=O)Nc4ccc([N+](=O)[O-])cc4)cc3)[nH]c2n(CCC)c1=O | 38 | 91 | –
O=C(O)COc1ccc(-c2nc3c(=O)n(Cc4ccccc4)c(=O)n(Cc4ccccc4)c3[nH]2)cc1 | – | – | inhibition [3]: 25%
CCCn1c(=O)c2nc(-c3ccc(OCC(=O)Nc4ccc(F)cc4)cc3)[nH]c2n(CCC)c1=O | 8.1 | 176 | –
CCCn1c(=O)c2nc(-c3ccc(OCC(=O)Nc4cccc(C(C)=O)c4)cc3)[nH]c2n(CCC)c1=O | 48 | 72 | –
CCCn1c(=O)c2[nH]c(-c3ccc(OCC(=O)Nc4ccc(F)cc4)cc3)nc2n(CCC)c1=O | – | – | Ki (Adenosine receptor A1 [4]): 272 nM
CCCn1c(=O)c2nc(-c3ccc(OCC(=O)Nc4ccc(C(=O)O)cc4)cc3)[nH]c2n(CCC)c1=O | 10 | > 300 | –
CCCn1c(=O)c2nc(-c3ccc(OCC(=O)NC(c4ccccc4)c4ccccc4)cc3)[nH]c2n(CCC)c1=O | – | – | inhibition [3]: 20%
CCn1c(=O)c2nc(-c3ccc(OCC(=O)Nc4ccc(C)cc4)cc3)[nH]c2n(CC)c1=O | – | – | Displacement [5]: < 10%
O=C(O)/C=C/c1ccc(-c2nc3c(=O)n(CC4CCCCC4)c(=O)n(CC4CCCCC4)c3[nH]2)cc1 | 25 | 4.6 | Ki (Adenosine receptor A2a [6]): < 10 nM
CCCn1c(=O)c2nc(-c3ccc(OCC(=O)Nc4ccc(C(C)=O)cc4)cc3)[nH]c2n(CCC)c1=O | 110 | 170 | –
CCCCn1c(=O)c2[nH]c(-c3ccc(OCC(=O)O)cc3)nc2n(CCCC)c1=O | – | – | Ki (Adenosine receptor A3 [7]): 27500 nM
CCCCn1c(=O)c2nc(-c3ccc(OCC(=O)O)cc3)[nH]c2n(CCCC)c1=O | 3.1 | 1.9 | –
CCCn1c(=O)c2nc(-c3ccc(OCC(=O)Nc4ccccc4C(C)=O)cc3)[nH]c2n(CCC)c1=O | 120 | 23 | –
CC(=O)c1ccccc1NC(=O)/C=C/c1ccc(-c2nc3c(=O)n(Cc4ccccc4)c(=O)n(Cc4ccccc4)c3[nH]2)cc1 | – | – | Displacement [8]: < 10%; Displacement [9]: < 10%
CCn1c(=O)c2[nH]c(-c3ccc(OCC(=O)Nc4ccc(CC(=O)NCCN)cc4)cc3)nc2n(CC)c1=O | – | – | Ki (Adenosine receptor A2b): 15.2 nM; Ki (Adenosine receptor A2a [6]): 1370 nM; Ki (Adenosine receptor A1 [4]): 65 nM
CCCn1c(=O)c2nc(-c3ccc(OCC(=O)Nc4ccc(Br)cc4)cc3)[nH]c2n(CCC)c1=O | 31 | 980 | –
C=CCn1c(=O)c2nc(-c3ccc(OCC(=O)O)cc3)[nH]c2n(CC=C)c1=O | 12 | 5.8 | –
CCCn1c(=O)c2nc(-c3ccc(OCC(=O)Nc4ccc(C(F)(F)F)cc4)cc3)[nH]c2n(CCC)c1=O | 29 | 100 | –
CCCn1c(=O)c2[nH]c(-c3ccc(OCC(=O)Nc4ccc(C(=O)O)cc4)cc3)nc2n(CCC)c1=O | – | – | Ki (Adenosine receptor A1 [10]): 161 nM; Ki (Adenosine receptor A2a [11]): 39 nM; Ki (Adenosine receptor A3 [12]): > 5000 nM
CC(=O)c1ccccc1NC(=O)/C=C/c1ccc(-c2nc3c(=O)n(CC4CCCCC4)c(=O)n(CC4CCCCC4)c3[nH]2)cc1 | – | – | Displacement [8]: < 10%; Displacement [13]: < 10%; Displacement [9]: < 10%
CC(=O)c1ccccc1NC(=O)COc1ccc(-c2nc3c(=O)n(Cc4ccccc4)c(=O)n(Cc4ccccc4)c3[nH]2)cc1 | – | – | Displacement [8]: < 10%; Displacement [14]: < 10%; Displacement [9]: < 10%
CCCn1c(=O)c2nc(-c3ccc(OCC(=O)NN4C(=O)C(C)=C(C)C4=O)cc3)[nH]c2n(CCC)c1=O | 110 | 25 | –
CCCn1c(=O)c2nc(-c3ccc(OCC(=O)N(Cc4ccccc4)Cc4ccccc4)cc3)[nH]c2n(CCC)c1=O | 70 | 29 | –
CCCn1c(=O)c2[nH]c(-c3ccc(OCC(=O)Nc4ccc(C(N)=O)cc4)cc3)nc2n(CCC)c1=O | – | – | Ki (Adenosine receptor A1 [10]): 161 nM; Ki (Adenosine receptor A2a [11]): 39 nM
CCCn1c(=O)c2nc(-c3ccc(/C=C/C(=O)O)cc3)[nH]c2n(CCC)c1=O | – | – | Ki (Adenosine receptor A2b): 60 nM; Ki (Adenosine receptor A3 [12]): 30 nM
CCCn1c(=O)c2nc(-c3ccc(OCC(=O)Nc4ccc(Cl)cc4)cc3)[nH]c2n(CCC)c1=O | 20 | 760 | –
